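Step 1: Grow cells in 96-well plates. Step 2: Expose to compound for 48 hours at 5 concentrations. Step 3: Interpolate endpoints linearly; if unreached, use highest concentration. Here, GI50 denotes the concentration required for 50% inhibition of growth.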 Activity calls are given as the source filed them. Rule as the data show it: active = GI50 up to about 1.1 µM and inactive = higher.
What was measured:
Experiment in all cases: growth of human tumour cells (NCI), 48 h
DMS-273 = system: DMS-273
SF-268 = system: SF-268
HCC 2998 = system: HCC 2998
CCRF-CEM = system: CCRF-CEM
SNB-75 = system: SNB-75
ACHN = system: ACHN
HT-29 = system: HT-29
DMS-114 = system: DMS-114
NCI-H226 = system: NCI-H226
UACC-62 = system: UACC-62
HCT-116 = system: HCT-116
HOP-92 = system: HOP-92
NCI-H23 = system: NCI-H23
SR = system: SR
COLO 205 = system: COLO 205
SNB-19 = system: SNB-19
KM12 = system: KM12
HOP-62 = system: HOP-62
Malme-3M = system: Malme-3M
RPMI-8226 = system: RPMI-8226
DLD-1 = system: DLD-1
RXF 393 = system: RXF 393
A549 = system: A549
NCI-H460 = system: NCI-H460
OVCAR-4 = system: OVCAR-4
RXF 631 = system: RXF 631
HCT-15 = system: HCT-15
SK-OV-3 = system: SK-OV-3
OVCAR-3 = system: OVCAR-3
SW-620 = system: SW-620
SK-MEL-28 = system: SK-MEL-28
UACC-257 = system: UACC-257
TK-10 = system: TK-10
KM-20L2 = system: KM-20L2
IGROV-1 = system: IGROV-1
M19-MEL = system: M19-MEL
EKVX = system: EKVX
MOLT-4 = system: MOLT-4
U-251 = system: U-251
LOX IMVI = system: LOX IMVI
SK-MEL-5 = system: SK-MEL-5
A498 = system: A498
SN12C = system: SN12C
SNB-78 = system: SNB-78
HL-60 = system: HL-60
LXFL 529 = system: LXFL 529
SF-295 = system: SF-295
K562 = system: K562
UO-31 = system: UO-31
OVCAR-5 = system: OVCAR-5
HOP-18 = system: HOP-18
M14 = system: M14
786-0 = system: 786-0
SF-539 = system: SF-539
OVCAR-8 = system: OVCAR-8
NCI-H522 = system: NCI-H522

N#Cc1c(-c2ccccc2)cc(-c2ccc(N)cc2)[nH]c1=O
GI50 (DMS-273): > 100 µM (inactive) | GI50 (SF-268): > 100 µM (inactive) | GI50 (HCC 2998): > 100 µM (inactive) | GI50 (CCRF-CEM): > 100 µM (inactive) | GI50 (SNB-75): 25.2 µM (inactive) | GI50 (ACHN): > 100 µM (inactive) | GI50 (HT-29): > 100 µM (inactive) | GI50 (DMS-114): > 100 µM (inactive) | GI50 (NCI-H226): > 100 µM (inactive) | GI50 (UACC-62): > 100 µM (inactive) | GI50 (HCT-116): > 100 µM (inactive) | GI50 (HOP-92): > 100 µM (inactive) | GI50 (NCI-H23): > 100 µM (inactive) | GI50 (SR): > 100 µM (inactive) | GI50 (COLO 205): > 100 µM (inactive) | GI50 (SNB-19): > 100 µM (inactive) | GI50 (KM12): > 100 µM (inactive) | GI50 (HOP-62): > 100 µM (inactive) | GI50 (Malme-3M): > 100 µM (inactive) | GI50 (RPMI-8226): > 100 µM (inactive) | GI50 (DLD-1): > 100 µM (inactive) | GI50 (RXF 393): > 100 µM (inactive) | GI50 (A549): > 100 µM (inactive) | GI50 (NCI-H460): > 100 µM (inactive) | GI50 (OVCAR-4): > 100 µM (inactive) | GI50 (RXF 631): > 100 µM (inactive) | GI50 (HCT-15): > 100 µM | GI50 (SK-OV-3): > 100 µM (inactive) | GI50 (OVCAR-3): > 100 µM (inactive) | GI50 (SW-620): > 100 µM (inactive) | GI50 (SK-MEL-28): > 100 µM (inactive) | GI50 (UACC-257): > 100 µM (inactive) | GI50 (TK-10): > 100 µM (inactive) | GI50 (KM-20L2): > 100 µM (inactive) | GI50 (IGROV-1): > 100 µM (inactive) | GI50 (M19-MEL): > 100 µM (inactive) | GI50 (EKVX): > 100 µM (inactive) | GI50 (MOLT-4): > 100 µM (inactive) | GI50 (U-251): > 100 µM (inactive) | GI50 (LOX IMVI): > 100 µM (inactive) | GI50 (SK-MEL-5): > 100 µM (inactive) | GI50 (A498): > 100 µM (inactive) | GI50 (SN12C): > 100 µM (inactive) | GI50 (SNB-78): > 100 µM (inactive) | GI50 (HL-60): > 100 µM (inactive) | GI50 (LXFL 529): > 100 µM (inactive) | GI50 (SF-295): > 100 µM (inactive) | GI50 (K562): > 100 µM (inactive) | GI50 (UO-31): > 100 µM (inactive) | GI50 (OVCAR-5): > 100 µM (inactive) | GI50 (HOP-18): > 100 µM (inactive) | GI50 (M14): > 100 µM (inactive) | GI50 (786-0): > 100 µM (inactive) | GI50 (SF-539): > 100 µM (inactive) | GI50 (OVCAR-8): > 100 µM (inactive) | GI50 (NCI-H522): > 100 µM (inactive)
